# According to patent US20220305012A1, “L[…] TREATING SLEEP ISSUES” (EISAI R&D MANAGEMENT CO., LTD., priority 2019, published 2022):
# Experiments:
# Assay type in all cases: in vivo, human
# [1] = tested on: Subjects Having Insomnia Disorder; assay: Example 2: return to sleep latency
# [2] = tested on: Subjects Having Insomnia Disorder; assay: Example 2: latency to persistent sleep (LPS), polysomnography
# Description: As used herein, the term “latency to persistent sleep”, abbreviated as “LPS.” means the minutes from lights off to the first epoch of 20 consecutive epochs (10 minutes) of non-wakefulness.
# In some embodiments, a sleep parameter is determined objectively using polysomnography. Polysomnography is the monitoring of multiple electrophysiological parameters during sleep and generally includes measurement of EEG activity, electro-oculographic activity and electromyographic activity, as well as other measurements.
# LPS—latency to persistent sleep: minutes from lights off to the first epoch of 20 consecutive epochs of non-wakefulness.
# The treatment period lasted for 31 days. Subjects were randomized in a double-blind manner and received placebo, a tablet containing 5 mg of lemborexant, a tablet containing 10 mg of lemborexant, or a tablet containing 6.25 mg of zolpidem ER.
# (§1) Within 5 minutes of the subject's mean habitual bedtime, study drug was administered and an overnight polysomnogram recording was initiated. At completion of the recording the following morning (Day 2), postural stability and cognitive performance were assessed. On the Day 2 evening, subjects returned to the clinic and a blood sample was collected before administering study drug, and then study drug was administered within 5 minutes of the subject's mean habitual bedtime. Again, a polysomnogram recording was initiated. The next morning (Day 3), postural stability and cognitive performance were assessed. A blood sample was also collected.
# (§2) On Day 29, subjects returned to the clinic. Study drug was administered within 5 minutes of the subject's mean habitual bedtime and a polysomnogram recording was conducted. On the following morning (Day 30), postural stability and cognitive performance were assessed. After 1.5 hours of waketime, subjects rated their morning sleepiness level.
# (§3) On the evening of Day 30, subjects returned to the clinic. A pre-dose blood sample was collected and study drug was again administered within 5 minutes of the subject's mean habitual bedtime. A polysomnogram recording was initiated. The following morning (Day 31), postural stability and cognitive performance were assessed and a blood sample was obtained. The ISI, FSS, EQ-5D-3L and PGI-Insomnia were administered. Blood and urine samples were collected for routine safety assessment. An electrocardiogram was performed, and vital signs and weight were assessed. The eC-SSRS was then administered to the subject. At 1.5 hours after waketime, subjects rated their morning sleepiness level.
# The primary endpoint was to determine the change from baseline for mean latency to persistent sleep on days 29 and 30 of 5 mg or 10 mg lemborexant compared to placebo.
# [3] = tested on: Subjects Having Insomnia Disorder; assay: Example 2: Insomnia Severity Index Daytime Functioning (Items 4-7); conditions: for Insomnia Severity Daytime Functioning (Items 4-7), Change from Study Baseline, Mean (SD) / Insomnia Severity Daytime Functioning (Items 4-7), Change from Study Baseline, Median / Insomnia Severity Daytime Functioning (Items 4-7), Mean (SD) / Insomnia Severity Daytime Functioning (Items 4-7), Median: Day 31
# Text: As used herein, the term “Insomnia Severity Index”, abbreviated as “ISI”, is an index calculated using a 7-item, self-report questionnaire assessing the nature, severity, and impact of insomnia (see Bastien, C. H., et al. “Validation of the Insomnia Severity Index as an outcome measure for insomnia research.” Sleep Med. 2001; 2(4): 297-307). The questionnaire evaluates: (1) severity of sleep onset; (2) sleep maintenance; (3) early morning awakening problems; (4) sleep dissatisfaction; (5) interference caused by sleep difficulties with daytime functioning; (6) noticeability of sleep problems by others; and (7) distress caused by the sleep difficulties. A 5-point scale is used to rate each item (0=no problem to 4=very severe problem) yielding a total score from 0 to 28. Total ISI score (items (1)-(7)) and daytime functioning (items (4)-(7)) are analyzed separately.
# On day 1 of the baseline period, subjects were admitted to the clinic and ISI, FSS, and EQ-5D-3L were administered. Blood and urine samples were collected for routine safety assessments, an ECG was performed, and vital signs and weight were assessed. The eC-SSRS was administered. Subjects who completed the baseline period and continued to meet the eligibility criteria were randomized and began the randomization phase.
# as §3
# [4] = tested on: Subjects Having Insomnia Disorder; assay: Example 2: postural stability, body sway upon awakening in morning
# Text: Subjects were provided with a sleep diary and trained on how to record entries. After subjects completed the sleep diary on 7 consecutive mornings, and provided that the subject was still eligible to participate in the study, they attended a second clinical meeting between 10 and 17 days before the randomization phase. The subject was then fitted with a polysomnogram and trained in how to complete the postural stability assessment and cognitive performance assessment battery. Subjects then underwent an 8-hour polysomnogram recording. Within 5 minutes of waking, the postural stability assessment and cognitive assessment battery were conducted on the subject.
# as §1, §2, §3
# An exemplary additional secondary endpoint is the change from baseline on the postural stability test of mean units of body sway on Days 2 and 3 after administration of 5 mg or 10 mg of lemborexant compared to zolpidem.
smiles,measurement,setting,value
"Cc1ncc(OC[C@@]2(c3cccc(F)c3)C[C@H]2C(=O)Nc2ccc(F)cn2)c(C)n1 [Lemborexant, (1R,2S)-2-(((2,4-dimethylpyrimidin-5-yl)oxy)methyl)-2-(3-fluorophenyl)-N-(5-fluoropyridin-2-yl)cyclopropanecarboxamide]","Return to Sleep Latency, LSM - Difference vs. Placebo",[1]; Lemborexant 5 mg,-22.5 min
same,"Return to Sleep Latency, Mean (SD) change from baseline",[1]; Lemborexant 5 mg,-22.8 min
same,"Return to Sleep Latency, Postdose",[1]; Lemborexant 5 mg,18.1 min
same,"Return to Sleep Latency, LSM - Difference vs. Placebo",[1]; Lemborexant 10 mg,-28.7 min
same,"Return to Sleep Latency, Mean (SD) change from baseline",[1]; Lemborexant 10 mg,-28.7 min
same,"Return to Sleep Latency, Postdose",[1]; Lemborexant 10 mg,12.1 min
same,return to sleep latency,"[1]; both doses, vs placebo and zolpidem (Table 28)",greater reduction in return to sleep latency than treatment with placebo and zolpidem
same,LPS LSM treatment ratio: Lemborexant/Zolpidem,"[2]; 5 mg vs zolpidem ER 6.25 mg, Days 1/2",0.874
same,LPS LSM treatment ratio: Lemborexant/Zolpidem,"[2]; 5 mg vs zolpidem ER 6.25 mg, Days 29/30",0.634
same,LPS LSM treatment ratio: Active/Placebo,"[2]; 5 mg, Days 1/2",0.850
same,"LPS, Mean","[2]; 5 mg, Days 1/2",28.27 min
same,"LPS, Median","[2]; 5 mg, Days 1/2",21.63 min
same,LPS LSM treatment ratio: Active/Placebo,"[2]; 5 mg, Days 29/30",0.773
same,"LPS, Mean","[2]; 5 mg, Days 29/30",25.84 min
same,"LPS, Median","[2]; 5 mg, Days 29/30",18.75 min
same,"LPS, Mean","[2]; 5 mg, Study Baseline",44.86 min
same,"LPS, Median","[2]; 5 mg, Study Baseline",33.13 min
same,"LPS Change from Study Baseline, Mean","[2]; 5 mg, at Days 1/2",-16.59 min
same,"LPS Change from Study Baseline, Median","[2]; 5 mg, at Days 1/2",-10.00 min
same,"LPS Change from Study Baseline, Mean","[2]; 5 mg, at Days 29/30",-19.53 min
same,"LPS Change from Study Baseline, Median","[2]; 5 mg, at Days 29/30",-12.00 min
same,LPS LSM treatment ratio: Lemborexant/Zolpidem,"[2]; 10 mg vs zolpidem ER 6.25 mg, Days 1/2",0.818
same,LPS LSM treatment ratio: Lemborexant/Zolpidem,"[2]; 10 mg vs zolpidem ER 6.25 mg, Days 29/30",0.594
same,LPS LSM treatment ratio: Active/Placebo,"[2]; 10 mg, Days 1/2",0.795
same,"LPS, Mean","[2]; 10 mg, Days 1/2",25.13 min
same,"LPS, Median","[2]; 10 mg, Days 1/2",21.75 min
same,LPS LSM treatment ratio: Active/Placebo,"[2]; 10 mg, Days 29/30",0.723
same,"LPS, Mean","[2]; 10 mg, Days 29/30",22.75 min
same,"LPS, Median","[2]; 10 mg, Days 29/30",19.25 min
same,"LPS, Mean","[2]; 10 mg, Study Baseline",44.61 min
same,"LPS, Median","[2]; 10 mg, Study Baseline",38.50 min
same,"LPS Change from Study Baseline, Mean","[2]; 10 mg, at Days 1/2",-19.48 min
same,"LPS Change from Study Baseline, Median","[2]; 10 mg, at Days 1/2",-10.50 min
same,"LPS Change from Study Baseline, Mean","[2]; 10 mg, at Days 29/30",-21.46 min
same,"LPS Change from Study Baseline, Median","[2]; 10 mg, at Days 29/30",-16.25 min
same,mean latency to persistent sleep,"[2]; all lemborexant treatment groups, relative to baseline, placebo group, and zolpidem group (Table 13)",reduced
same,"Insomnia Severity Daytime Functioning (Items 4-7), Change from Study Baseline, Mean (SD)",[3]; Lemborexant 5 mg,−4.83 (3.593)
same,"Insomnia Severity Daytime Functioning (Items 4-7), Change from Study Baseline, Median",[3]; Lemborexant 5 mg,−4.00
same,"Insomnia Severity Daytime Functioning (Items 4-7), Mean (SD)",[3]; Lemborexant 5 mg,6.12 (3.488)
same,"Insomnia Severity Daytime Functioning (Items 4-7), Median",[3]; Lemborexant 5 mg,6.00
same,"Insomnia Severity Daytime Functioning (Items 4-7), Change from Study Baseline, Mean (SD)",[3]; Lemborexant 10 mg,−4.77 (3.735)
same,"Insomnia Severity Daytime Functioning (Items 4-7), Change from Study Baseline, Median",[3]; Lemborexant 10 mg,−4.00
same,"Insomnia Severity Daytime Functioning (Items 4-7), Mean (SD)",[3]; Lemborexant 10 mg,6.10 (3.617)
same,"Insomnia Severity Daytime Functioning (Items 4-7), Median",[3]; Lemborexant 10 mg,6.00
same,mean insomnia severity index daytime score,"[3]; lemborexant treatment groups, relative to baseline and the placebo treatment group (Table 23)",reduced
same,"Body Sway Upon Awakening in Morning, Change from Study Baseline, Mean (SD)","[4]; Days 2/3, Lemborexant 5 mg",−0.82 ⅓ degree angle of arc
same,"Body Sway Upon Awakening in Morning, Change from Study Baseline, Median","[4]; Days 2/3, Lemborexant 5 mg",−0.50 ⅓ degree angle of arc
same,"Body Sway Upon Awakening in Morning, Mean (SD)","[4]; Days 2/3, Lemborexant 5 mg",25.73 ⅓ degree angle of arc
same,"Body Sway Upon Awakening in Morning, Median","[4]; Days 2/3, Lemborexant 5 mg",21.00 ⅓ degree angle of arc
same,"Body Sway Upon Awakening in Morning, Change from Study Baseline, Mean (SD)","[4]; Days 2/3, Lemborexant 10 mg",0.56 ⅓ degree angle of arc
same,"Body Sway Upon Awakening in Morning, Change from Study Baseline, Median","[4]; Days 2/3, Lemborexant 10 mg",0.50 ⅓ degree angle of arc
same,"Body Sway Upon Awakening in Morning, Mean (SD)","[4]; Days 2/3, Lemborexant 10 mg",24.36 ⅓ degree angle of arc
same,"Body Sway Upon Awakening in Morning, Median","[4]; Days 2/3, Lemborexant 10 mg",20.00 ⅓ degree angle of arc
same,"Body Sway Upon Awakening in Morning, Change from Baseline, Mean (SD)","[4]; Days 30/31, Lemborexant 5 mg",−0.85 ⅓ degree angle of arc
same,"Body Sway Upon Awakening in Morning, Change from Baseline, Median","[4]; Days 30/31, Lemborexant 5 mg",−0.50 ⅓ degree angle of arc
same,"Body Sway Upon Awakening in Morning, Mean (SD)","[4]; Days 30/31, Lemborexant 5 mg",25.10 ⅓ degree angle of arc
same,"Body Sway Upon Awakening in Morning, Median","[4]; Days 30/31, Lemborexant 5 mg",20.50 ⅓ degree angle of arc
same,"Body Sway Upon Awakening in Morning, Change from Baseline, Mean (SD)","[4]; Days 30/31, Lemborexant 10 mg",0.48 ⅓ degree angle of arc
same,"Body Sway Upon Awakening in Morning, Change from Baseline, Median","[4]; Days 30/31, Lemborexant 10 mg",0.50 ⅓ degree angle of arc
same,"Body Sway Upon Awakening in Morning, Mean (SD)","[4]; Days 30/31, Lemborexant 10 mg",22.76 ⅓ degree angle of arc
same,"Body Sway Upon Awakening in Morning, Median","[4]; Days 30/31, Lemborexant 10 mg",18.00 ⅓ degree angle of arc
same,effects on postural stability compared to placebo,[4]; Table 24,no significant effects on postural stability compared to placebo
same,body sway,"[4]; all lemborexant treatment groups, relative to baseline, placebo and zolpidem treatment groups (Table 24)",reduced
